Measured values: patent US20130296311A1, “INHIBITORS OF HCV NS5A” (PRESIDIO PHARMACEUTICALS, INC., priority 2010, published 2013)

tested on: HCV 1b_Huh-Luc/Neo-ET cell line persistently expressing a bicistronic genotype 1b replicon in Huh 7 cells; experiment: HCV replicon assay (luciferase readout, 72 h); format: cell-based, HCV genotype 1b; conditions: Hepatitis C virus, Huh-7, 72 h, read-out: Inhibition of HCV genotype 1b
In short: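 EC50 values come from a four-parameter fit of luciferase signal as % of untreated control, repeated across several determinations. The signal is from the HCV 1b_Huh-Luc/Neo-ET replicon line, dosed in triplicate one day post-plating and incubated 72 h before Bright-Glo readout.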

SMILES	EC50
COC(=O)N[C@@H](C(=O)N1CCC[C@H]1c1ncc(-c2ccc(C#Cc3ccc(-c4cnc([C@@H]5CCCN5C(=O)[C@H](NC(=O)N5CCC[C@@H](O)C5)c5ccccc5)[nH]4)cc3)cc2)[nH]1)c1ccccc1 [Compound 264]	< 1 nM
COC(=O)N[C@H](C(=O)N1CCC[C@H]1c1ncc(-c2ccc(C#Cc3ccc(-c4cnc([C@@H]5CCCN5C(=O)[C@@H](c5ccccc5)N5CCN(CCO)CC5)[nH]4)cc3)cc2)[nH]1)C(C)C [Compound 958]	< 1 nM
O=C(N[C@@H](C(=O)N1CCC[C@H]1c1ncc(-c2ccc(C#Cc3ccc(-c4cnc([C@@H]5CCCN5C(=O)[C@@H](c5ccccc5)N5CCCCC5)[nH]4)cc3)cc2)[nH]1)c1ccccc1)N1CCOCC1 [Compound 209]	< 1 nM
COC(=O)N[C@@H](C(=O)N1CCC[C@H]1c1ncc(-c2ccc(C#Cc3ccc(-c4cnc([C@@H]5CCCN5C(=O)C5(c6ccccc6)CC5)[nH]4)cc3)cc2)[nH]1)c1ccccc1 [Compound 257]	< 1 nM
CCN(CC)[C@@H](C(=O)N1CCC[C@H]1c1ncc(C#Cc2ccc(C#Cc3cnc([C@@H]4CCCN4C(=O)[C@H](NC(=O)OC)c4ccccc4)[nH]3)cc2)[nH]1)c1ccccc1 [Compound 315]	< 1 nM
COC(=O)N[C@@H](CCC(=O)O)C(=O)N1CCC[C@H]1c1ncc(-c2ccc(C#Cc3ccc4nc([C@@H]5CCCN5C(=O)[C@H](CCC(=O)O)NC(=O)OC)[nH]c4c3)cc2)[nH]1 [Compound 1047]	10 to 999 nM
CCOC(=O)N[C@@H](C(=O)N1CCC[C@H]1c1ncc(-c2ccc(C#Cc3ccc(-c4cnc([C@@H]5CCCN5C(=O)[C@H](NC(=O)OCC)c5ccccc5)[nH]4)cc3)cc2)[nH]1)c1ccccc1 [Compound 244]	< 1 nM
COC(=O)N[C@H](C(=O)N1CCC[C@H]1c1ncc(-c2ccc(C#Cc3ccc4nc([C@@H]5CCCN5C(=O)[C@@H](NC(=O)OC)[C@@H](C)OC)[nH]c4c3)cc2)[nH]1)[C@@H](C)OC [Compound 862]	< 1 nM
O=C(N[C@@H](C(=O)N1CCC[C@H]1C(=O)NCc1ccc(C#Cc2ccc(-c3cnc([C@@H]4CCCN4C(=O)[C@H](NC(=O)C4CC4)c4ccccc4)[nH]3)cc2)cc1)c1ccccc1)C1CC1 [Compound 190]	< 1 nM
COC(=O)N[C@@H](C(=O)N1CCC[C@H]1c1ncc(-c2ccc(C#Cc3ccc(-c4cnc([C@@H]5CCCN5C(=O)N5CCOCC5)[nH]4)cc3)cc2)[nH]1)c1ccccc1 [Compound 198]	< 1 nM
COC(=O)N[C@@H](C(=O)N1CCC[C@H]1C(=O)Nc1ccc(C#Cc2ccc(-c3cnc([C@@H]4CCCN4C(=O)[C@H](NC(=O)OC)c4ccccc4)[nH]3)cc2)cc1)c1ccccc1 [Compound 171]	< 1 nM
CS(=O)(=O)N[C@@H](C(=O)N1CCC[C@H]1c1ncc(-c2ccc(C#Cc3ccc(-c4cnc([C@@H]5CCCN5C(=O)[C@@H](c5ccccc5)N5CCCC5)[nH]4)cc3)cc2)[nH]1)c1ccccc1 [Compound 230]	< 1 nM
COC(=O)N[C@@H](C(=O)N1CCC[C@H]1c1ncc(-c2ccc(C#Cc3ccc(-c4cnc([C@@H]5CCCN5C(=O)[C@H](NC(=O)N5CCOCC5)c5ccccc5)[nH]4)cc3)cc2)[nH]1)c1ccccc1 [Compound 224]	< 1 nM
COC(=O)N[C@H](C(=O)N[C@@H](C)c1ncc(-c2ccc(C#Cc3ccc(-c4cnc([C@H](C)NC(=O)[C@@H](NC(=O)OC)[C@@H](C)O)[nH]4)cc3)cc2)[nH]1)[C@@H](C)O [Compound 969]	< 1 nM
COC(=O)N[C@H](C(=O)N1CCC[C@H]1c1nc2ccc(C#Cc3ccc(-c4cnc([C@@H]5CCCN5C(=O)[C@H](c5ccccc5)N(C)C)[nH]4)cc3)cc2[nH]1)C(C)C [Compound 864]	< 1 nM
COC(=O)N[C@H](C(=O)N1CCC[C@H]1c1ncc(-c2ccc(C#Cc3ccc(-c4cnc([C@@H]5CCCN5C(=O)[C@@H](NC(=O)OC)C5CCOCC5)[nH]4)c(F)c3)cc2)[nH]1)C1CCOCC1 [Compound 1012]	< 1 nM

SMILES	EC50
O=C(N[C@@H](C(=O)N1CCC[C@H]1c1nc(-c2ccc3cc(C#Cc4cnc([C@@H]5CCCN5C(=O)[C@H](NC(=O)C5CC5)c5ccccc5)[nH]4)ccc3c2)c[nH]1)c1ccccc1)C1CC1 [Compound 804]	< 1 nM
O=C(N[C@@H](C(=O)N1CCC[C@H]1c1ncc(-c2ccc(C#Cc3ccc(-c4cnc([C@@H]5CCCN5C(=O)[C@@H](c5ccccc5)N5CCCCC5)[nH]4)cc3)cc2)[nH]1)c1ccccc1)C1CC1 [Compound 208]	< 1 nM
CNC(=O)N[C@@H](C(=O)N1CCC[C@H]1c1ncc(-c2ccc(C#Cc3ccc(-c4cnc([C@@H]5CCCN5C(=O)[C@H](NC(=O)C5CC5)c5ccccc5)[nH]4)cc3)cc2)[nH]1)c1ccccc1 [Compound 997]	< 1 nM
COC(=O)N[C@@H](C(=O)N1CCC[C@H]1c1ncc(C#Cc2ccc(C#Cc3cnc([C@@H]4CCCN4C(=O)[C@@H](c4ccccc4)N4CCOCC4)[nH]3)cc2)[nH]1)c1ccccc1 [Compound 313]	< 1 nM
CC(=O)N[C@@H](C(=O)N1CCC[C@H]1c1ncc(-c2ccc(C#Cc3ccc(-c4cnc([C@@H]5CCCN5C(=O)[C@H](NC(C)=O)c5ccccc5)[nH]4)cc3)cc2)[nH]1)c1ccccc1 [Compound 158]	< 1 nM
COC(=O)N[C@@H](C(=O)N1CCC[C@H]1c1ncc(-c2ccc(C#Cc3ccc(-c4cnc([C@@H]5CCCN5C(=O)[C@@H]5CCCN5C)[nH]4)cc3)cc2)[nH]1)c1ccccc1 [Compound 202]	< 1 nM
COC(=O)N[C@@H](C(=O)N1CCC[C@H]1c1ncc(-c2ccc(C#Cc3ccc(-c4cnc([C@@H]5CCCN5C(=O)[C@@H](c5ccccc5)N(C)C)[nH]4)cc3)cc2)[nH]1)c1ccccc1 [Compound 174]	< 1 nM
COC(=O)N[C@@H](C(=O)N1CCC[C@H]1c1ncc(-c2ccc(C#Cc3ccc(-c4cnc([C@@H]5CCCN5C(=O)C5CCN(C)CC5)[nH]4)cc3)cc2)[nH]1)c1ccccc1 [Compound 182]	< 1 nM
O=C(N[C@@H](C(=O)N1CCC[C@H]1c1cc(-c2ccc(C#Cc3ccc(-c4cnc([C@@H]5CCCN5C(=O)[C@H](NC(=O)C5CC5)c5ccccc5)[nH]4)cc3)cc2)n[nH]1)c1ccccc1)C1CC1 [Compound 212]	< 1 nM
COC(=O)N[C@@H](C(=O)N1CCC[C@H]1c1ncc(-c2ccc(C#Cc3ccc(-c4cnc([C@@H]5CCCN5C(=O)c5nccn5C)[nH]4)cc3)cc2)[nH]1)c1ccccc1 [Compound 176]	< 1 nM
O=C(N[C@@H](C(=O)N1CCC[C@H]1c1ncc(-c2ccc(C#Cc3ccc(-c4cnc([C@@H]5CCCN5C(=O)[C@H](NC(=O)N5CCC(O)CC5)c5ccccc5)[nH]4)cc3)cc2)[nH]1)c1ccccc1)N1CCC(O)CC1 [Compound 251]	< 1 nM
CC[C@@H](C(=O)N1CCC[C@H]1c1ncc(-c2ccc(C#Cc3ccc(-c4cnc([C@@H]5CCCN5C(=O)[C@H](NC(=O)OC)c5ccccc5)[nH]4)cc3)cc2)[nH]1)c1ccccc1 [Compound 258]	< 1 nM
COC(=O)N[C@H](C(=O)N1CCC[C@H]1c1ncc(-c2ccc(C#Cc3ccc4nc([C@@H]5CCCN5C(=O)[C@@H](NC(=O)OC)C(C)C)[nH]c4c3)cc2)[nH]1)C(C)C [Compound 802]	< 1 nM
O=C(N[C@@H](C(=O)N1CCC[C@H]1c1ncc(-c2ccc(C#Cc3ccc(-c4cnc([C@@H]5CCCN5C(=O)[C@H](NC(=O)N5CCOCC5)c5ccccc5)[nH]4)cc3)cc2)[nH]1)c1ccccc1)C1CC1 [Compound 239]	< 1 nM
C[C@@H](NC(=O)C1CC1)C(=O)N1CCC[C@H]1c1ncc(-c2ccc(C#Cc3ccc(-c4cnc([C@@H]5CCCN5C(=O)[C@@H](C)NC(=O)C5CC5)[nH]4)cc3)cc2)[nH]1 [Compound 154]	1 to 9.9 nM
COC(=O)N[C@@H](CC(N)=O)C(=O)N1CCC[C@H]1c1ncc(-c2ccc(C#Cc3ccc4nc([C@@H]5CCCN5C(=O)[C@H](CC(N)=O)NC(=O)OC)[nH]c4c3)cc2)[nH]1 [Compound 1046]	1 to 9.9 nM

same assay, conditions: Hepatitis C virus, Huh-7, read-out: Inhibition of HCV genotype 1b

SMILES	EC50
CC[C@H](C)C(NC(=O)OC)C(=O)N1CCC[C@H]1c1nc2ccc(C#Cc3ccc(-c4cnc([C@@H]5CCCN5C(=O)[C@@H](NC(=O)OC)[C@@H](C)OC)[nH]4)cc3)cc2[nH]1 (some centres unmarked) [Compound 1246]	< 1 nM
COC(=O)N[C@H](C(=O)N1CCN(C(=O)OC)C[C@H]1c1ncc(-c2ccc(C#Cc3ccc4nc([C@@H]5CCCN5C(=O)[C@@H](NC(=O)OC)C5CCOCC5)[nH]c4c3)cc2)[nH]1)C(C)C [Compound 1229]	< 1 nM
COC(=O)N[C@H](C(=O)N1CCC[C@H]1c1nc2c([nH]1)-c1ccc(C#Cc3ccc4nc([C@@H]5CCCN5C(=O)[C@H](NC(=O)OC5CCOCC5)c5ccccc5)[nH]c4c3)cc1CCC2)C(C)C [Compound 1282]	< 1 nM
COC(=O)N[C@H](C(=O)N1CCN(C(=O)OC)C[C@H]1c1ncc(-c2ccc(C#Cc3ccc(-c4cnc([C@@H]5CCCN5C(=O)[C@H](NC(=O)OC)c5ccccc5)[nH]4)cc3)cc2)[nH]1)C(C)C [Compound 1206]	< 1 nM
C#CC[C@H](NC(=O)OC)C(=O)N1CCC[C@H]1c1nc2ccc(C#Cc3ccc4c(c3)CCCc3nc([C@@H]5CCCN5C(=O)[C@@H](NC(=O)OC)C(C)C)[nH]c3-4)cc2[nH]1 [Compound 1284]	< 1 nM
COC(=O)N[C@H](C(=O)N1CCC[C@H]1c1ncc(-c2ccc3cc(C#Cc4[nH]c([C@@H]5CCCN5C(=O)[C@@H](NC(=O)OC)C(C)C)nc4C#N)ccc3c2)[nH]1)C(C)C [Compound 1257]	< 1 nM
COC(=O)N[C@H](C(=O)N1CCC[C@H]1c1ncc(-c2ccc(C#Cc3ccc(-c4cnc([C@@H]5CCCN5C(=O)[C@@H](NC(=O)OC)C(C)C)[nH]4)cc3C#N)cc2)[nH]1)C(C)C [Compound 1202]	< 1 nM
COC(=O)N[C@H](C(=O)N1CCC[C@H]1c1ncc(-c2ccc(C#Cc3ccc4nc([C@@H]5CCCN5C(=O)[C@@H](NC(=O)OC)C5CCCC5)[nH]c4n3)cc2)[nH]1)C1CCCC1 [Compound 1250]	< 1 nM
COC[C@H](NC(=O)OC)C(=O)N1CCC[C@H]1c1nc2ccc(C#Cc3ccc(-c4cnc([C@@H]5CCCN5C(=O)[C@@H](NC(=O)OC)C(C)C)[nH]4)cc3)cc2[nH]1 [Compound 1243]	< 1 nM
